Assay: Octanol/water partition coefficient (log P) by HPLC elution time against a working curve of standard substances
Type: physicochemical
Conditions: Tosoh ODS-120T column, acetonitrile/0.6% (by mass) aqueous HClO4 = 1/1, 40° C., UV 210 nm, standards heptanoic, octanoic, nonanoic and decanoic acid
Experimental: The octanol/water partition coefficient is the coefficient of partition between 1-octanol and water and is expressed in terms of log P [wherein P represents the ratio between the fluorine-containing surfactant (A) concentration in octanol/fluorine-containing surfactant (A) concentration in water as found upon phase separation of a fluorine-containing surfactant (A)-containing octanol/water mixture (1:1)]. The octanol/water partition coefficient is determined by the measurement method according to OECD Guideline 107. In measuring the octanol/water partition coefficient, such methods as the flask shaking method and reversed-phase high performance liquid chromatography can generally be employed.
(5) Octanol/Water Partition Coefficient
Standard substances (heptanoic acid, octanoic acid, nonanoic acid and decanoic acid) each having a known octanol/water partition coefficient were subjected to HPLC under the following conditions: column: Tosoh ODS-120T column (ø4.6 mm×250 mm), eluent: acetonitrile/0.6% (by mass) aqueous solution of HClO4=1/1 (vol/vol %), flow rate: 1.0 ml/minute, sample size: 300 μL, column temperature: 40° C., detection light: UV 210 nm. A working curve showing the relation between the elution time and the known octanol/water partition coefficient was then constructed. The coefficient in question was determined from the elution time in HPLC for the sample solution based on that working curve.
For `N.O=C(O)C(F)(F)C(F)(F)C(F)(F)C(F)(F)C(F)(F)C(F)F` [Fluorine-containing surfactant 1, H(CF2CF2)3COONH4], the “logP: octanol/water partition coefficient” value was 2.4.
For “CF3CF2(CF2CF2)2COONH4 [Fluorine-containing surfactant 4]”, the “logP: octanol/water partition coefficient” value was 3.0.
For `N.O=C(O)C(F)(F)C(F)(F)C(F)(F)C(F)(F)C(F)(F)C(F)(F)C(F)(F)F` [Fluorine-containing surfactant 5, CF3(CF2CF2)3COONH4], the “logP: octanol/water partition coefficient” value was 3.5.
For `N.O=C(O)C(F)(OC(F)(F)C(F)(F)C(F)(F)F)C(F)(F)F` (centres unmarked) [Fluorine-containing surfactant 2, C3F7OCF(CF3)COONH4], the “logP: octanol/water partition coefficient” value was 2.5.
With `N.O=C(O)C(F)(OC(F)(F)C(F)(OC(F)(F)F)C(F)(F)F)C(F)(F)F` (centres unmarked) [Fluorine-containing surfactant 3, CF3O(CF(CF3)CF2O)CF(CF3)COONH4] the “logP: octanol/water partition coefficient” value was 3.4.

— patent US7714047B2, “Process for producing aqueous fluoropolymer dispension and aqueous fluoropolymer dispersion” (Daikin Industries, Ltd., priority 2003, dated 2010)
